Measured values taken from BindingDB's records for patent US11826435 (University of Saskatchewan, 2023).

Target: T1, Lysosomal acid glucosylceramidase (Homo sapiens, UniProt P04062)
T1 sequence (P04062 whole entry): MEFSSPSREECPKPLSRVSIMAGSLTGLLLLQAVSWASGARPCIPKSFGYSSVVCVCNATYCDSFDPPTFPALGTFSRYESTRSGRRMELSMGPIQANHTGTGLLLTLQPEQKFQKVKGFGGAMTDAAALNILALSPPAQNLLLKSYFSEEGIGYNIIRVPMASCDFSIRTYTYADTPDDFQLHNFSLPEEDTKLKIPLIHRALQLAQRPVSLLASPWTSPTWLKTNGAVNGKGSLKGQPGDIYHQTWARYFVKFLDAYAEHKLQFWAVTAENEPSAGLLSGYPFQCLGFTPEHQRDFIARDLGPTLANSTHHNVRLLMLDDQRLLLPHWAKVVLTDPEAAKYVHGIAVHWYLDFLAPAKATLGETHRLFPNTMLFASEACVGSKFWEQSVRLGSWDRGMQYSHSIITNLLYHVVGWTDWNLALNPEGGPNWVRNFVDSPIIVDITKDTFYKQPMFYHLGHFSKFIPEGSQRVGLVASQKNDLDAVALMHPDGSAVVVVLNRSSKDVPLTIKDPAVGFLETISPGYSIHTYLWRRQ
Assay: Enzyme Kinetics - Measuring Inactivation Rates of Inhibitors
Protocol: Inactivation solutions contained a final concentration of 16.55 nM of Cerezyme (Recombinant GCase) in 200 μL of Reaction Buffer (50 mM acetate, 0.2% v/v Triton X-100, 0.3% w/v sodium taurocholate, pH 5.5). The Cerezyme was collected from leftover patient vials and had approximately 8275 nM in the vial. […] Once the inhibitor was added this was considered time=0 minutes. Meanwhile a 96 well plate inside a Biotek Synergy 4 hybrid multi-mode reader at 37 C. was being incubated. In the wells of the plate were waiting a high concentration ([…]) of 2,4-DNP-β-Glc substrate in 180 μL of Reaction Buffer. As the inhibitor inactivation was occurring, 20 μL aliquots were taken from the inactivation solutions and diluted on the plate containing the substrate bringing the final concentration of the substrate to […]. Once all the aliquots were added the solution in the wells was measured for absorbance at 400 nm for 8 minutes. At this time the measurements were paused and the next set of aliquots were taken to see how residual enzyme activity changes over time.

O=[N+]([O-])c1ccc(OC2O[C@H](CO)[C@@H](O)[C@H](O)[C@H]2F)c([N+](=O)[O-])c1 (some centres not stated) [US11826435, Compound 1.1]
IC50: > 1000 µM

O[C@H]1[C@H](O)[C@@H](O)[C@@H]2O[C@@H]2[C@@H]1O [US11826435, Compound 1.2]
Ki: 140 µM
